# Data taken from US20110053897A1 (IRM LLC, priority 2009, published 2011).
# Target: T1, Syk kinase (Homo sapiens, UniProt P43405)
# T1 construct: purchased
# Assay: Syk kinase inhibition, Caliper LabChip off-chip mobility-shift kinase assay
# Type: biochemical
# Conditions: Caliper LabChip assay; read-out: Syk Enzyme IC50
# How it was run: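 Purified Syk pre-incubated 15 min with compound in 100 mM HEPES pH 7.5, 1 mM DTT, 10 mM MgCl2 or MnCl2, 0.002% Brij-35, then 1.5 μM fluorescein peptide and ATP at apparent KM added; 1–1.5 h at room temperature, 4% DMSO, EDTA stop. Microfluidic mobility-shift product/substrate conversion gave % inhibition; IC50 from 12-point series (10–0.00003 μM) by 4-parameter fit.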
row,IC50,SMILES
1,0.087 µM,CCn1ccc2cc(Nc3cnccn3)nc(N[C@@H]3CCC[C@@H]3CO)c2c1=O [compound 942]
2,0.011 µM,CC(O)c1ccnc(Nc2cc3ccn(CCO)c(=O)c3c(NC3(C)CCC3)n2)c1 (centres unmarked) [compound 718]
3,0.006 µM,CC(C)(C)Nc1nc(Nc2cc(CO)ccn2)cc2ccn(CC(=O)O)c(=O)c12 [compound 875]
4,0.205 µM,CC(C)(C)Nc1nc(Nc2cnccn2)cc2ccn(CCN3CCOCC3)c(=O)c12 [compound 998]
5,0.035 µM,CC1(Nc2nc(Nc3cc(C(C)(C)O)ncn3)cc3ccn(CC(O)CO)c(=O)c23)CCC1 (centres unmarked) [compound 732]
6,0.615 µM,CC(C)(C)Nc1nc(Nc2cc(N3CCCC(O)C3)ccn2)cc2ccn(CCO)c(=O)c12 (centres unmarked) [compound 848]
7,0.483 µM,CCn1ccc2cc(Nc3cnccn3)nc(N[C@@H]3CCC[C@H]3O)c2c1=O [compound 940]
8,0.202 µM,"CCn1ccc2cc(-c3cnc(N)nc3)nc(NS(C)(=O)=O)c2c1=O [compound 744, N-(3-(2-Aminopyrimidin-5-yl)-7-ethyl-8-oxo-7,8-dihydro-2,7-naphthyridin-1-yl)methane sulfonamide]"
9,0.324 µM,CCn1ccc2cc(Nc3cnccn3)nc(NC3(CO)CCCC3)c2c1=O [compound 788]
10,0.01 µM,O=c1c2c(NC3CCCC3)nc(Nc3cnccn3)cc2ccn1C[C@H](O)CO [compound 775]
11,0.244 µM,Cc1[nH]ncc1-c1ccnc(Nc2cc3ccn(CCO)c(=O)c3c(NC(C)(C)C)n2)c1 [compound 855]
12,0.37 µM,CC1(O)CN(Cc2cc(Nc3cc4ccn(CCO)c(=O)c4c(NC(C)(C)C)n3)ncc2F)C1 [compound 610]
13,0.37 µM,O=c1c2c(NC3CCS(=O)(=O)C3)nc(Nc3cnccn3)cc2ccn1CCO (centres unmarked) [compound 975]
14,0.067 µM,"CC1(Cn2ccc3cc(-c4cnc(N)nc4)nc(NC4COC4)c3c2=O)COC1 [compound 773, 6-(2-Aminopyrimidin-5-yl)-2-((3-methyloxetan-3-yl)methyl)-8-(oxetan-3-ylamino)-2,7-naphthyridin-1(2H)-one]"
15,0.052 µM,CC1(Cn2ccc3cc(Nc4cnccn4)nc(NC4CC(F)(F)C4)c3c2=O)COC1 [compound 765]
16,0.301 µM,CC(C)(C)Nc1nc(Nc2cc(C(C)(C)CO)ccn2)cc2ccn(CCO)c(=O)c12 [compound 863]
17,0.081 µM,CCn1ccc2cc(Nc3cc(C)ccn3)nc(NC(C)(CO)CO)c2c1=O [compound 808]
18,0.043 µM,CCC(C)(C)Nc1nc(-c2cnc(N)nc2)cc2cc[nH]c(=O)c12 [compound 893]
19,0.062 µM,"C/C(=N\O)c1ccnc(Nc2cc3ccn(CCO)c(=O)c3c(NC(C)(C)C)n2)c1 [compound 685, (E)-8-(tert-butylamino)-2-(2-hydroxyethyl)-6-(4-(1-(hydroxyimino)ethyl)pyridin-2-ylamino)-2,7-naphthyridin-1(2H)-one]"
20,0.016 µM,COC(C)c1ccnc(Nc2cc3ccn(CCO)c(=O)c3c(NC(C)(C)C)n2)c1 (centres unmarked) [compound 868]
21,0.057 µM,CC(C)(C)Nc1nc(-c2cnc(N)nc2)cc2ccn(C(C)(C)C(N)=O)c(=O)c12 [compound 673]
22,0.174 µM,O=c1c2c(N[C@H]3CC[C@@H](O)CC3)nc(Nc3cnccn3)cc2ccn1Cc1ccncc1 [compound 1024]
23,0.027 µM,N#CCn1ccc2cc(Nc3cnccn3)nc(NC3CCCC3)c2c1=O [compound 753]
24,0.059 µM,CCn1ccc2cc(Nc3cc(C)ccn3)nc(NC3CCCC(O)C3)c2c1=O (centres unmarked) [compound 972]
25,0.754 µM,CCn1ccc2cc(Nc3cc(C)ccn3)nc(NC3CC=C(C)CC3)c2c1=O (centres unmarked) [compound 954]
26,0.027 µM,O=c1c2c(NC3CC3)nc(Nc3cnccn3)cc2ccn1CCO [compound 818]
27,0.022 µM,CCn1ccc2cc(Nc3nccc(O)n3)nc(N[C@@H]3CC[C@H](O)C3)c2c1=O [compound 958]
28,0.078 µM,CC(C)(C)Nc1nc(-c2cnc(N)nc2)cc2ccn(CC(=O)N3CCOCC3)c(=O)c12 [compound 678]
29,0.117 µM,Cc1ccnc(Nc2cc3ccn(CCO)c(=O)c3c(NCC(F)F)n2)c1 [compound 815]
30,0.038 µM,Nc1ncc(-c2cc3ccn(CCO)c(=O)c3c(NC3CC3)n2)cn1 [compound 1035]

# Same assay, conditions: read-out: Syk Enzyme IC50
row,IC50,SMILES
1,0.312 µM,O=c1[nH]ccc2cc(Nc3ccccn3)nc(NCC3CC3)c12 [compound 291]
2,0.16 µM,COc1cncc(-c2cc3cc[nH]c(=O)c3c(Nc3ccc(C4CCN(C(C)CC#N)CC4)c(C)c3)n2)n1 (centres unmarked) [compound 171]
3,0.502 µM,[2H]C([2H])([2H])n1ccc2cc(Nc3cc(C)c(Cl)cn3)nc(NC(C)(C)C)c2c1=O [compound 537]
4,0.035 µM,COCCCN1CCC(c2ccc(Nc3nc(-c4cncnc4)cc4cc[nH]c(=O)c34)cc2F)CC1 [compound 197]
5,0.099 µM,COC(=O)CN1CCC(c2ccc(Nc3nc(-c4cncc(OC)n4)cc4cc[nH]c(=O)c34)cc2C)CC1 [compound 157]
6,0.071 µM,CCn1ccc2cc(Nc3ncccn3)nc(NC[C@H]3CC[C@H](O)C3)c2c1=O [compound 411]
7,0.0462 µM,CCn1ccc2cc(Nc3ncccn3)nc(NC[C@@H]3CC[C@@H](O)C3)c2c1=O [compound 413]
8,0.182 µM,CCn1ccc2cc(Nc3cc(C)ccn3)nc(N[C@@H]3CCC[C@@H]3O)c2c1=O [compound 418]
9,0.045 µM,CN(C)[C@H]1CC[C@H](c2ccc(Nc3nc(-c4cncnc4)cc4cc[nH]c(=O)c34)cc2)CC1 [compound 92]
10,0.281 µM,CCC(C)(C)Nc1nc(-c2cnc(N)nc2)cc2cc[nH]c(=O)c12 [compound 454]
11,0.058 µM,O=c1[nH]ccc2cc(C3CCOCC3)nc(Nc3ccc(N4CCOCC4)cc3)c12 [compound 87]
12,0.124 µM,Cc1ccnc(Nc2cc3ccn(C)c(=O)c3c(NC3CCC3)n2)c1 [compound 489]
13,0.344 µM,Cc1cc(-c2cc3cc[nH]c(=O)c3c(Nc3ccc(C4CCN(CCC#N)CC4)c(C)c3)n2)nc(N)n1 [compound 70]
14,0.318 µM,COc1cncc(-c2cc3cc[nH]c(=O)c3c(Nc3ccc(N4CCC(OC)CC4)cc3)n2)n1 [compound 20]
15,0.226 µM,Cc1nc(-c2cc3cc[nH]c(=O)c3c(Nc3ccc([C@H]4CC[C@H](N5CCOCC5)CC4)cc3)n2)cnc1N [compound 102]
16,0.599 µM,Cn1ccc2cc(Nc3cnccn3)nc(N)c2c1=O [compound 479]
17,0.048 µM,CNC(=O)CN1CCC(c2ccc(Nc3nc(-c4cncc(OC)n4)cc4cc[nH]c(=O)c34)cc2C)CC1 [compound 135]
18,0.063 µM,CCC(=O)N1CCC(c2ccc(Nc3nc(-c4cncc(OC)n4)cc4cc[nH]c(=O)c34)cc2C)CC1 [compound 80]
19,0.047 µM,CCn1ccc2cc(Nc3cc(C)ccn3)nc(N[C@H]3CC[C@@H](O)C3)c2c1=O [compound 424]
20,0.011 µM,CCN1CCN(c2n[nH]c3cc(Nc4nc(-c5cncc(OC)n5)cc5cc[nH]c(=O)c45)ccc23)CC1 [compound 209]
21,0.007 µM,COc1cncc(-c2cc3cc[nH]c(=O)c3c(Nc3ccc(C4CCN(CCC(=O)O)CC4)c(C)c3)n2)n1 [compound 163]
22,0.0604 µM,[2H]C([2H])([2H])n1ccc2cc(Nc3cc(Cl)ccn3)nc(N[C@@H](C)CO)c2c1=O [compound 403]
23,0.551 µM,CCCNC(=O)c1ccc(Nc2nc(Nc3cc(C)ccn3)cc3ccn(C)c(=O)c23)cc1 [compound 363]
